In patent publication US11066421B1, “Synthetic cinchona alkaloids against cancer” (Ares Pharmaceuticals, LLC, priority 2021, dated 2021):

How the values were obtained:
Type in all cases: in vivo
[1] = test system: M24-MET human melanoma cells; assay: CB.17 SCID mouse xenograft model of human malignant melanoma; conditions: 5 mg/kg i.p. twice daily, 5 days on 2 days off
Description: (§1) Cell Lines. Human melanoma cell line M24-MET (ATCC CRL-12270) was obtained from American Type Culture Collection (Rockville, Md.) and maintained as a continuous cell line in DMEM supplemented with 10% fetal calf serum (FCS), 4 mm glutamine, 100 units/ml penicillin G, and […] streptomycin sulfate. All of the tissue culture reagents were obtained from Life Technologies, Inc. Inc. (Gaithersburg, Md.).
Mice. Female CB.17 SCID mice were obtained from Taconic (Germantown, N.Y.) and housed in a specific-pathogen-free room located in a secure indoor facility with controlled temperature, humidity, and noise levels. Mice were housed in micro-isolator cages and fed with autoclaved rodent chow. Water was also autoclaved and supplemented with trimethoprim/sulfamethoxazol 3 days a week. […]
SCID Mouse Model of Human Malignant Melanoma. […] The size of subcutaneous tumors were measured on day 14 and day 16 to evaluate the ability of AP-1 to inhibit tumor growth in this SCID mouse xenograft model of melanoma. Tumor volumes were calculated using the formula for the volume of a prolate spheroid, V=4/3×3.14×length/2×width/2×depth/2.

U87 human GBM cells = assay: CB.17 SCID mouse xenograft model of human glioblastoma multiforme; conditions: 5 days per week for 4 weeks
Description: as §1, with “brain tumor” for “melanoma”, “U87” for “M24-MET”, “HTB-14)” for “CRL-12270)”
Mice. Female CB.17 SCID mice were obtained from Taconic (Germantown, N.Y.) and housed in a specific-pathogen-free room located in a secure indoor facility with controlled temperature, humidity, and noise levels. Mice were housed in micro-isolator cages and fed with autoclaved rodent chow. Water was also autoclaved and supplemented with trimethoprim/sulfomethoxazol 3 days a week. The animal protocol used in this study was approved by the local Institutional Animal Care and Use Committee (IACUC), and all of the animal care procedures conformed to the Guide for the Care and Use of Laboratory Animals (National Research Council, National Academy Press, Washington D.C. 1996).
SCID Mouse Xenograft Model of Human Glioblastoma Multiforme (GBM). The predictive value of the mouse xenograft models for clinical effectiveness of anti-cancer drugs has been confirmed for several drugs (Richmond A, Su. Y. Mouse xenograft models vs GEM models for human cancer therapeutics. Dis Model Mech. 2008; 1(2-3):78-82. doi:10.1242/dmm.000976). CB.17 SCID mice (8 wk. old, female) were inoculated subcutaneously with 1×10^6 U87 human GBM cells (1×10^6/inoculum, volume: 200 μL) in the right hind leg, as described (R. K. Narla et al., 2001, Clin Cancer Res. 7:2124-33). Mice were treated daily with intraperitoneal injections of vehicle (50 μL DMSO) or AP-1 (125 μg˜5 mg/kg/day in 50 μL DMSO) according to a 5 days on 2 days off schedule for 4 consecutive weeks. Tumor growth was determined by the measurement of visible tumors with a caliper in three dimensions three days a week and expressed as tumor volume in cubic millimeters (mm^3). Tumor volumes were calculated using the formula for the volume of a prolate spheroid, V=4/3×3.14×length/2×width/2×depth/2.

[2] = test system: PC3 human prostate cancer cells; assay: CB.17 SCID mouse xenograft model of human prostate cancer; conditions: 2 mg/kg i.p. twice daily, 5 days on 2 days off
Description: Cell Lines. Human prostate cancer cell line PC3 (ATCC CRL-1435) was obtained from American Type Culture Collection (Rockville, Md.) and maintained as a continuous cell line in DMEM supplemented with 10% fetal calf serum (FCS), 4 mm glutamine, 100 units/ml penicillin G, and […] streptomycin sulfate. All of the tissue culture reagents were obtained from Life Technologies, Inc. Inc. (Gaithersburg, Md.). Mice. Female CB.17 SCID mice were obtained from Taconic (Germantown, N.Y.) and housed in a specific-pathogen-free room located in a secure indoor facility with controlled temperature, humidity, and noise levels. Mice were housed in micro-isolator cages and fed with autoclaved rodent chow. Water was also autoclaved and supplemented with trimethoprim/sulfamethoxazol 3 days a week. The animal protocol used in this study was approved by the Drug Discovery Enterprises Animal Care and Use Committee (IACUC), and all of the animal care procedures conformed to the Guide for the Care and Use of Laboratory Animals (National Research Council, National Academy Press, Washington D.C. 1996). […] The size of subcutaneous tumors were measured on day 16 and day 18 to evaluate the ability of AP-8 to inhibit tumor growth in this SCID mouse xenograft model of prostate cancer. Tumor volumes were calculated using the formula for the volume of a prolate spheroid, V=4/3×3.14×length/2×width/2×depth/2.

Row | SMILES | tumor progression [1] | average tumor volume ([1]; day 16, from day 7) | tumor progression (U87 human GBM cells; 5 mg/kg/dose i.p. daily) | average tumor size (U87 human GBM cells; day 15, 5 mg/kg/day i.p.) | average tumor size (U87 human GBM cells; day 30, 5 mg/kg/day i.p.) | tumor size (U87 human GBM cells; day 44, 5 mg/kg/day i.p.) | tumor progression [2] | average tumor volume ([2]; day 18, from day 7)
1 | C=CC1CN2CCC1CC2C(Oc1cc(OC(c2ccnc3ccccc23)C2CC3CCN2CC3C=C)nc(OC(c2ccnc3ccccc23)C2CC3CCN2CC3C=C)n1)c1ccnc2ccccc12 (centres unmarked) [AP-1, 2,4,6-Tri(9-O-cinchoninyl)pyrimidine] | significantly slowed down the tumor progression | 484.3±76.5 mm3 | significantly slowed down the tumor progression | 4.1±1.1 mm^3 | 37.8±16.2 mm^3 | 956.0±291.3 mm^3 | – | –
2 | CCC1CN2CCC1CC2C(Oc1cc(OC(c2ccnc3ccc(OC)cc23)C2CC3CCN2CC3CC)nc(OC(c2ccnc3ccc(OC)cc23)C2CC3CCN2CC3CC)n1)c1ccnc2ccc(OC)cc12 (centres unmarked) [AP-8, 2,4,6-Tri (9-O-dihydroquinidinyl)pyrimidine] | – | – | – | – | – | – | significantly slowed down the tumor progression | 45.1±7.8 mm^3
